Reference: patent publication US20020143062A1, “Method to incorporate N-(4-hydroxyphenyl) retinamide in liposomes” (Board of Regents, The University of Texas System, priority 2000, published 2002)
Read-outs that look alike come from different tables or passages of the source.

Tests used:
ER-positive MCF-7 cells [1] = assay: NO production, nitrite assay (Table 6); assay type: cell-based; details: 4HPR 1 μM alone, 5 days
Description: (§1) Nitric oxide (NO), an important biological second messenger, is known to induce growth inhibition and apoptosis in cells. Nitric oxide (NO) is biosynthesized by isoenzymes called nitric oxide synthases. One such isoenzyme, inducible NOS (iNOS), is present only after cytokine induction, such as interferon-γ (IFN-γ). […] Here, the ability of liposomal 4-HPR and IFN-γ to induce NO production and growth inhibition in breast cancer positive (Table 5) and breast cancer negative (Table 6) cells is examined by nitrite assays and growth inhibition assays, as known to the skilled artisan.
(§2) It is also known to those skilled in the art that nitric oxide (NO) is a biologic mediator derived from the amino acid L-arginine. A family of enzymes, known as nitric oxide synthase (NOS), act upon L-arginine to oxidize one of the guanidino nitrogens to nitric oxide while citrulline is formed from the remainder of the L-arginine molecule.

MCF-7/WT = assay: Cellular proliferation assay, IC50 of retinoids with/without cyclosporin A; assay type: cell-based; details: for IC50: Homo sapiens
MCF-7/ADR = assay: as above; assay type: cell-based; details: for IC50: Homo sapiens, NCI/ADR-RES
SK-Br-3 = assay: NO production, nitrite (Table 10); assay type: cell-based; details: Herceptin − or + as labelled
Description: (§3) Overexpression/amplification of the Her-2/neu oncogene has been associated with poor prognosis for breast cancer.

BT-474 [2] = assay: NO production, nitrite (Table 10); assay type: cell-based; details: Herceptin − or + as labelled
Description: as §3

MDA-MB-453 [3] = assay: NO production, nitrite (Table 10); assay type: cell-based; details: Herceptin − or + as labelled
Description: as §3

MDA-MB-231 = assay: Cellular proliferation assay, IC50 of retinoids with/without cyclosporin A; assay type: cell-based; details: for IC50: Homo sapiens
ER-positive MCF-7 cells [4] = assay: Growth inhibition, cell count (Table 5); assay type: cell-based; details: 4HPR 1 μM alone; 5 days
Description: as §1

[5] = 100 μM
Experimental: The shelf stability of liposomal 4-HPR with free 4-HPR was compared. Liposomal 4-HPR and free 4-HPR were diluted with 0.9% normal saline at 100 μM concentration, and incubated at room temperature under subdued light. At various time points, absorbance at 345 nm was measured as a parameter of 4-HPR stability. All data are expressed as % of absorbance at time zero, which is considered as 100%.

[6] = cited from earlier work
BT-474 cells = assay: Growth and viability, Celltiter 96 Aqueous (MTS) cell proliferation assay; assay type: cell-based; details: Homo sapiens, BT-474, 72 h, 3 days, % of untreated cells, read-out: Growth and viability (%) after treatment
Experimental: (§4) Breast cancer cell lines were plated in 96 well plates in DMEM/F12 medium supplemented with 5% fetal calf serum and incubated with different concentrations of liposomal 4-HPR and free 4-HPR, respectively. At the end of incubation, the growth of cells was determined by the Celltiter 96 Aqueous nonradioactive cell proliferation assay (Promega Corp., Madison, Wis.) according to the manufacturer's protocol. Growth and viability of cells were determined by MTS assay after treatment with 4-HPR for 3 days (BT-474) and 4 days (MCF7). Growth of treated cells was compared with that of untreated cells cultured under the same conditions, and was expressed as % of untreated cells.

MCF-7 cells = assay: as above; assay type: cell-based; details: Homo sapiens, MCF7, 96 h, 4 days, % of untreated cells, read-out: Growth and viability (%) after treatment
Experimental: as §4

ER-positive MCF-7 cells [7] = assay: NO production, nitrite assay (Tables 5 and 7); assay type: cell-based
Description: as §1, §2
(§5) Liposomal 4-HPR in combination with cyclosporin A, increased iNOS production of NO in breast cancer cells (Table 3-5). […] Furthermore, an increase in the production of NO in these cells was not indicated with other retinoids such as CD437 and ATRA.

MDA-MB-453 [8] = assay: Cellular proliferation assay, IC50 of retinoids with/without cyclosporin A; assay type: cell-based; details: for IC50: Homo sapiens
[9] = Incorporation efficiency of 4-HPR into liposomes (OD345 after/before separation); assay type: physicochemical
Experimental: The mixture was frozen in acetone-dry ice bath, and then dried by lyophilzer. It was stored as a powder and resuspended with saline before use.
To determine the incorporation efficiency of 4-HPR into liposomes, liposomal 4-HPR powder was resuspended in saline and any free, unincorporated free 4-HPR was separated by centrifugation at 30,000× g for 1 hour. Liposomal 4-HPR was collected as a pellet and washed three times with saline. 4-HPR concentration was determined by absorbance at 345 nm. To remove the interference by liposomal turbidity, absorbance was measured after liposomal 4-HPR before and after separation was diluted with 1:1 mixture of dimethylsulfoxide and water. The incorporation efficiency was calculated by the following equation:
Incorporation efficiency=OD345 (after separation)/OD345 (before separation)×100%

ER-positive MCF-7 cells [10] = assay: Growth inhibition, cell count (Table 6); assay type: cell-based; details: 4HPR 1 μM alone, 5 days
Description: Nitric oxide (NO), an important biological second messenger, is known to induce growth inhibition and apoptosis in cells. Nitric oxide (NO) is biosynthesized by isoenzymes called nitric oxide synthases. […]

[11] = system: ER-negative MDA-MB-231 cells; assay: NO production, nitrite (Table 8); assay type: cell-based; details: alone or with cyclosporin A 4 μg/ml as labelled, 3 days
Description: as §5

BT-474 [12] = assay: Cellular proliferation assay, IC50 of retinoids with/without cyclosporin A; assay type: cell-based; details: for IC50: Homo sapiens
[13] = without cyclosporin A, read-out: IC50 Without CsA
[14] = cotreatment with CsA 2 μg/ml, read-out: IC50 With CsA

CC1=C(/C=C/C(C)=C/C=C/C(C)=C/C(=O)Nc2ccc(O)cc2)C(C)(C)CCC1 [4-HPR, N-(4-hydroxyphenyl) retinamide]
Nitrite (NO production) (ER-positive MCF-7 cells [1]): 36.9 ± 5.8 μM Nitrite /1 × 10^6 cells
-Fold ↑ (IC50 without CsA / with CsA) (MCF-7/WT; CsA 2 μg/ml): 3.11 -Fold
IC50 (MCF-7/WT; MCF7, cotreatment with CsA 2 μg/ml, read-out: IC50 With CsA): 1.21 µM
IC50 (MCF-7/WT; MCF7, without cyclosporin A, read-out: IC50 Without CsA): 3.76 µM
-Fold ↑ (IC50 without CsA / with CsA) (MCF-7/ADR; CsA 4 μg/ml): 2.47 -Fold
IC50 (MCF-7/ADR; cotreatment with CsA 4 μg/ml, read-out: IC50 With CsA): 2.7 µM
IC50 (MCF-7/ADR; [13]): 6.66 µM
Nitrite (NO production) (SK-Br-3; 4HPR 1 μM): 34.9 ± 1.2 μM Nitrite /1 × 10^6 cells
Nitrite (NO production) (SK-Br-3; 4HPR 2.5 μM): 75.2 ± 5.1 μM Nitrite /1 × 10^6 cells
Nitrite (NO production) (BT-474 [2]; 4HPR 1 μM): 45.8 ± 0. μM Nitrite /1 × 10^6 cells
Nitrite (NO production) (BT-474 [2]; 4HPR 2.5 μM): 146.9 ± 2.8 μM Nitrite /1 × 10^6 cells
Nitrite (NO production) (MDA-MB-453 [3]; 4HPR 1 μM): 30.9 ± 1.5 μM Nitrite /1 × 10^6 cells
Nitrite (NO production) (MDA-MB-453 [3]; 4HPR 2.5 μM): 68.1 ± 3.4 μM Nitrite /1 × 10^6 cells
-Fold ↑ (IC50 without CsA / with CsA) (MDA-MB-231; CsA 2 μg/ml): 6.37 -Fold
IC50 (MDA-MB-231; [14]): 1.23 µM
IC50 (MDA-MB-231; [13]): 7.84 µM
Cell count (ER-positive MCF-7 cells [4]): 20 × 10^4
% remaining (absorbance at 345 nm as % of time zero) ([5]; 0 h): 100%
% remaining (absorbance at 345 nm as % of time zero) ([5]; 24 h): 85%
% remaining (absorbance at 345 nm as % of time zero) ([5]; 48 h): 84%
% remaining (absorbance at 345 nm as % of time zero) ([5]; 72 h): 71%
% remaining (absorbance at 345 nm as % of time zero) ([5]; 96 h): 61%
% remaining (absorbance at 345 nm as % of time zero) ([5]; 120 h): 51%
% remaining (absorbance at 345 nm as % of time zero) ([5]; 168 h): 32%
solubility in water [6]: poorly soluble in water
viability at 0.1 µM (BT-474 cells; 0.1 μM 4-HPR): 100 ± 13.4%
viability at 0.9 µM (BT-474 cells; 0.9 μM 4-HPR): 109 ± 4.1%
viability at […] (BT-474 cells; 1.5 μM 4-HPR): 99.4 ± 12.1%
viability at 2.3 µM (BT-474 cells; 2.3 μM 4-HPR): 76.9 ± 5.3%
viability at 3.8 µM (BT-474 cells; 3.8 μM 4-HPR): 52.6 ± 3.7%
viability at 9 µM (BT-474 cells; 9.0 μM 4-HPR): 17.1 ± 2.8%
viability at 0.1 µM (MCF-7 cells; 0.1 μM 4-HPR): 106 ± 7.8%
viability at 0.9 µM (MCF-7 cells; 0.9 μM 4-HPR): 77.5 ± 5.8%
viability at […] (MCF-7 cells; 1.5 μM 4-HPR): 43.8 ± 5.7%
viability at 1.8 µM (MCF-7 cells; 1.8 μM 4-HPR): 33.6 ± 2%
viability at 3.6 µM (MCF-7 cells; 3.6 μM 4-HPR): 17.8 ± 1.5%
Nitrite (NO production) (ER-positive MCF-7 cells [7]; 4HPR 1 μM alone, 5 days, text: liposomal 4-HPR): 72.6 ± 1.7 μM Nitrite /1 × 10^6 cells
Nitrite (NO production) (ER-positive MCF-7 cells [7]; 4HPR 1.0 μM, alone or with cyclosporin A 4 μg/ml as labelled, 3 days): 12.5 μM Nitrite /1 × 10^6 cells
Nitrite (NO production) (ER-positive MCF-7 cells [7]; 4HPR 2.0 μM, alone or with cyclosporin A 4 μg/ml as labelled, 3 days): 33.8 μM Nitrite /1 × 10^6 cells
-Fold ↑ (IC50 without CsA / with CsA) (MDA-MB-453 [8]; CsA 2 μg/ml): 3.26 -Fold
IC50 (MDA-MB-453 [8]; [14]): 1.9 µM
IC50 (MDA-MB-453 [8]; [13]): 6.2 µM
incorporation efficiency ([9]; by optimizing ratio of 4-HPR to lipid mixture and ratio of DMPC to soybean oil): up to 96%
Incorporation efficiency (%) ([9]; composition column 1 of 7: 4-HPR:Lipid (w/w) 1:17, DMPC:soybean oil 1:0, water in tertiary butyl alcohol 0): 60.0%
Incorporation efficiency (%) ([9]; composition column 2 of 7: 4-HPR:Lipid 1:17, DMPC:soybean oil 1:0, water in tertiary butyl alcohol 1): 81.5%
Incorporation efficiency (%) ([9]; composition column 3 of 7: water in tertiary butyl alcohol 1, lipid ratios not resolvable (header spans lost), DMPC:soybean oil 9:1): 87.5%
Incorporation efficiency (%) ([9]; composition column 4 of 7: water in tertiary butyl alcohol 10, lipid ratios not resolvable (header spans lost)): 92.8%
Incorporation efficiency (%) ([9]; composition column 5 of 7: water in tertiary butyl alcohol 1, lipid ratios not resolvable (header spans lost), DMPC:soybean oil 8:2): 77.5%
Incorporation efficiency (%) ([9]; composition column 6 of 7: 4-HPR:Lipid 1:5 (likely), DMPC:soybean oil 9:1, water in tertiary butyl alcohol 10): 88.3%
Incorporation efficiency (%) ([9]; composition column 7 of 7: 4-HPR:Lipid 1:15, DMPC:soybean oil 9:1, water in tertiary butyl alcohol 10): 96.4%
Cell count (ER-positive MCF-7 cells [10]): 34 × 10^4
Nitrite (NO production) ([11]; 4HPR 2.5 μM): 22.8 μM Nitrite /1 × 10^6 cells
Nitrite (NO production) ([11]; 4HPR 6.0 μM): 26.7 μM Nitrite /1 × 10^6 cells
-Fold ↑ (IC50 without CsA / with CsA) (BT-474 [12]; CsA 2 μg/ml): 1.81 -Fold
IC50 (BT-474 [12]; [14]): 1.99 µM
IC50 (BT-474 [12]; [13]): 3.61 µM
